In patent publication US9532554B2, “Method for inducing hepatocellular variation, and production method for chimeric non-human animal having humanized liver” (PUBLIC UNIVERSITY CORPORATION YOKOHAMA CITY UNIVERSITY, priority 2011, dated 2017):

Target: T1, human CYP2D6 (Homo sapiens, UniProt P10635)
T1 construct: from tissue; host or cells: humanized liver of chimeric mice (transplanted human hepatic cells), in vivo
Assay: Debrisoquine metabolism to 4-OHDB in chimeric mice
Assay type: in vivo
Conditions: debrisoquine 2.0 mg/kg orally, chimera group vs sham-operated group
Procedure: Debrisoquine, which serves as a common phenotyping agent for human CYP2D6, is metabolized to 4-hydroxydebrisoquine (4-OHDB) in humans but is negligible in mice.
Debrisoquine was orally administered at a dose of 2.0 mg/kg. The data was obtained 8 hours after the oral administration and is indicated by the mean±SD.

T1 sequence (P10635 whole entry): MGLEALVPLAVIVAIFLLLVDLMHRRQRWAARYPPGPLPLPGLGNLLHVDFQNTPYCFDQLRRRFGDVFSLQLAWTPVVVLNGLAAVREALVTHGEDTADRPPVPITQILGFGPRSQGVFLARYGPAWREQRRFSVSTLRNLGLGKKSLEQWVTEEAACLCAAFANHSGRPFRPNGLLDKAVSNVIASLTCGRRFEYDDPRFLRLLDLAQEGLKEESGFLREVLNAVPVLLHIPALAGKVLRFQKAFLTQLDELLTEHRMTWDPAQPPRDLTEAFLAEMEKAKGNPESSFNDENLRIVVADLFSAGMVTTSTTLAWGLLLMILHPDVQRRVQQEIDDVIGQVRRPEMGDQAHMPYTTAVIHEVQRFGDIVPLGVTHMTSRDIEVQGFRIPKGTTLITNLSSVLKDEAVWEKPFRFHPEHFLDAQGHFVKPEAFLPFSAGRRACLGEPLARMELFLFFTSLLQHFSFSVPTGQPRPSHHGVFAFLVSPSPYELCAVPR

## N=C(N)N1CCc2ccccc2C1 [debrisoquine, Debrisoquine]
  plasma concentration of 4-OHDB following oral administration of debrisoquine: higher in the chimera group than in the sham-operated group
